In article PMC11052077, “Discovery of Dolutegravir Derivative against Liver Cancer via Inducing Autophagy and DNA Damage” (Molecules, 2024):

Key:
γ-H2AX = assay: Western blot, γ-H2AX; format: cell-based, human; settings: 2, 4, 8 μM, 48 h, Huh7, western blot
Experimental: (§1) To elucidate the impact of compounds 5e and 5p on the regulation of cell proliferation, we examined the expression levels of key proteins involved in cell growth processes, encompassing autophagy, apoptosis, cell cycle, and DNA damage (Figure 7).
(§2) Protein expression levels were measured by western blot. Huh7 cells were cultured in 12-well plates and different concentrations (0, 2, 4, 8 μM) of 5e and 5p were added for 48 h. Proteins were extracted from whole cells using radio-immunoprecipitation assay (RIPA) buffer containing a protease/phosphatase inhibitor cocktail (CST). Then, 10–15% sodium dodecyl sulfate polyacrylamide gel electrophoresis and nitrocellulose membranes (Millipore) were employed to separate and collect proteins. Antibodies used include LC3 (3868s, CST), Caspase3 (9662, CST), cyclin D (2922s, CST), cyclin E (20808s, CST), γH2AX (9718s, CST), β-Catenin (9562s, CST), and β-actin (4967s, CST).

hepG2 cells = assay: CCK8 cell viability assay, hepG2; format: cell-based, human
Experimental: (§3) This study aimed to assess the anti-proliferative activity of dolutegravir-1,2,3-triazole derivatives on hepatocellular carcinoma cell lines, Huh7 and hepG2. A comprehensive CCK8 assay was employed to evaluate the impact of these compounds on cell viability, with cells treated at a concentration of 20 μM for 48 h. HRM cells, a normal cell line, were included as a control for comparative analysis.
(§4) Human hepatocellular carcinoma cell lines Huh7 and hepG2 were obtained from ATCC (Manassas, VA, USA). Cells were cultured in DMEM or RPMI 1640 medium containing 10% FBS and 1% penicillin/streptomycin at 37 °C with a 5% CO2-humidified atmosphere.
(§5) CCK8 assay was used to measure cell viability. Cells with a density of 1 × 10^4 cells/well were seeded on 96-well plates. After adhesion, cells were treated with different diluted compounds or vehicle control DMSO and continued to be cultured for 48 h or 72 h, respectively. Then, CCK8 reagent was added for one hour incubation at 37 °C with 5% CO2. Absorbance was measured using a Microplate spectrophotometer (Thermo, Waltham, MA, USA) at 450 nm. The ratio of cell viability of control was taken as 100%. […] Then, IC50 of compounds were investigated using the prism statistical software 7.0.

Huh7 cells [1] = assay: LIVE/DEAD staining (live and dead cell measurement); format: cell-based, human; settings: 5 μM or 10 μM, 24 h
Experimental: To further assess the anti-proliferative activity of dolutegravir derivatives, LIVE/DEAD staining was conducted. Huh7 cells were treated with 5 μM or 10 μM of 5e and 5p for 24 h, followed by live and dead cell imaging and quantification. […] This may be attributed to significant cell proliferation suppression at 10 μM concentration, leading to a limited number of viable cells. Furthermore, to validate the impact of dolutegravir derivatives on cell proliferation, a plate clone formation assay was performed. Cells were exposed to various concentrations (0, 2, 4, 8, 16, and 32 μM) of 5e or 5p.
Huh7 cells with a density of 5 × 10^3 cells/well were seeded on 96-well plates. Then, different concentrations (0, 5 μM, 10 μM) of 5e or 5p were treated for 24 h. Cells were then stained with the LIVE/DEAD Assay Kit, observed and photographed using the fluorescent microscope.

γ-H2AX in Huh7 cells = assay: γ-H2AX immunofluorescence / DNA damage staining, Huh7; format: cell-based, human; settings: Huh7, 5, 10, 20 μM, 24 h
Experimental: (§6) The phosphorylation of H2AX serves as a highly specific and sensitive molecular marker for DNA damage. Through Western blotting, we have confirmed that compounds 5e and 5p induce DNA damage in Huh7 and HepG2 cells. To further substantiate the inhibitory effect of compounds 5e and 5p on Huh7 cells, immunofluorescence was employed to assess their correlation with γ-H2AX.
The Huh7 cells with a density of 5 × 10^3 cells per well were seeded in a 96-well plate for overnight incubation. Then, different concentrations (0, 5 μM, 10 μM, 20 μM) of the compounds 5e and 5p were added to cells for 24 h. A DNA damage detection kit was used to dye the cells, and cells were observed and photographed by a fluorescent microscope. Cell nucleus is stained blue, and DNA damage is shown as green fluorescence.

Huh7 cells [2] = assay: CCK8 cell viability assay, Huh7; format: cell-based, human
Experimental: as §3, §4, §5

Huh7 cells [3] = assay: Apoptosis assay, Annexin V-FITC/PI flow cytometry; format: cell-based, human; settings: 48 h
Experimental: Given the observed inhibitory effects of compounds 5e and 5p on cancer cell proliferation, we further investigated their impact on cell apoptosis. Apoptosis analysis was conducted on Huh7 cells treated with varying concentrations of 5e or 5p, utilizing Annexin V-FITC and PI staining, followed by flow cytometry to quantify apoptotic cells.
Huh7 cells were cultured in 6-well plates with a density of 3 × 10^5 cells/well. Different concentrations of 5e or 5p were added to cells for 48 h, respectively. The concentrations were 0, 2, 4, and 8 μM for Huh7 cells. After treatment, Annexin V-FITC Apoptosis Detection Kit (Elabscience, Wuhan, China) was used to determine the apoptotic ratio and FlowJo software v10 was used to analyze.

γ-H2AX in HepG2 cells = assay: γ-H2AX immunofluorescence, HepG2; format: cell-based, human; settings: HepG2, 72 h
Experimental: as §6
The HepG2 cells (1 × 10^6) were plated in laser confocal dishes (Nest, Wuxi, China), before Compound 5e and 5p were treated for 72 h. Then, 4% paraformaldehyde was added to each laser confocal dishes for 20 min, after rinsing with PBS. The Triton X-100 was used to penetrate the cells for 20 min. Before the cells were incubated with p-H2AX (Cell Signaling Technology, Danvers, MA, USA) at 1:800 dilution at 4 °C overnight, goat serum was used to block for 30 min. Subsequently, the HepG2 were rinsed with PBS and incubated with Alexa Fluor 488 (Proteintech, Wuhan, China) at a 1:1000 dilution in the dark at room temperature for 1 h. DAPI was added to each laser to stain the cell nucleus for 5 min. Then, the cells were observed under a laser confocal microscope (Nikon, Tokyo, Japan), after rinsing with PBS.

Caspase3 = assay: Western blot, Caspase3; format: cell-based, human; settings: 2, 4, 8 μM, 48 h, Huh7, western blot
Experimental: as §1, §2

[4] = system: HRM cells (human renal mesangial cells); assay: in vitro; format: cell-based; settings: 20 µM
Experimental: as §3, with “analysis. […]” for “analysis.”
as §5

[5] = system: Cyclin D, Cyclin E, β-catenin; assay: Western blot, cell cycle-related proteins; format: cell-based, human; settings: 2, 4, 8 μM, 48 h, Huh7, western blot
Experimental: as §1, §2

COc1c2n(cc(C(=O)Nc3cccc(-c4cn(-c5cccc(C(F)(F)F)c5)nn4)c3)c1=O)CC1OCCC(C)N1C2=O (stereo not drawn) [Compound 5p]
γ-H2AX protein expression (DNA damage) (γ-H2AX): induction of γ-H2AX
Cell Viability (100%), 20 μM, 48 h, hepG2 (hepG2 cells; 20 μM, hepG2, CCK8, control taken as 100%): 30.66%
IC50 (hepG2 cells; 48 h, hepG2, CCK8, read-out: half maximal inhibitory concentration (IC50), hepG2): 4.83 ± 1.17 µM
live Huh7 cells (LIVE/DEAD staining) (Huh7 cells [1]): decreased with increasing concentration
ratio of dead to live cells (Huh7 cells [1]): increased compared to the untreated group
γ-H2AX expression by immunofluorescence (γ-H2AX in Huh7 cells): increased the expression of γ-H2AX
Cell Viability (100%), 20 μM, 48 h, Huh7 (Huh7 cells [2]; 20 μM, Huh7, CCK8, control taken as 100%): 5.93%
IC50 (Huh7 cells [2]; 48 h, Huh7, CCK8, read-out: half maximal inhibitory concentration (IC50), Huh7): 5.42 ± 0.43 µM
apoptosis in Huh7 cells (Huh7 cells [3]; 2 μM): no significant impact
apoptosis in Huh7 cells (Huh7 cells [3]; 4 μM): remarkable apoptosis
apoptosis in Huh7 cells (Huh7 cells [3]; 8 μM): remarkable apoptosis
γ-H2AX expression by immunofluorescence (γ-H2AX in HepG2 cells): increased the expression of γ-H2AX
Caspase3 protein expression (Caspase3): remained unchanged
Cell Viability (100%), 20 μM, 48 h, HRM [4]: 16.33%
Cyclin D, Cyclin E or β-catenin expression [5]: no significant differences
